Data on seven compounds can be found in patent US11344527B2, “Methods and compositions for treating cancer” (Sutter West Bay Hospitals, priority 2007, dated 2022).

pIC50: −log10 of the molar value. Entries after “also recorded” stand apart in the source; their conditions may differ. Like-named read-outs stand apart in the source and are kept apart here.

Test [1] has as its system U251 cells. Description: MTT cell proliferation assay, U251 GBM cells. The note with it: 95% confidence limits. The class given is cell-based, human. The procedure:
(§1) The human GBM cell lines used were SF126, U87 and U251. Cell lines were maintained at 37° C. and 5% CO2.
(§2) Treatment groups were divided into 1) no treatment (control), 2) Δ^9-THC alone, 3) CBD alone, 4) Δ^9-THC and CBD combined. Positive and negative aspects of constituent interaction were determined in this 2×2 design using 2-way analysis of variance as described by (Slinker, 1998). […] Significant differences were also determined using ANOVA where suitable. […] P values <0.05 defined statistical significance.
A general note: Tetrazolium dyes change colour on reduction, which living cells bring about.

For test [2], the system named is MDA-MB231 cells. The test is described as follows: Boyden chamber invasion assay, MDA-MB231. The note with it: for invasion of MDA-MB231 cells: 0.1, 1.0 or 1.5 μM, FIG. 1A. The class given is cell-based, human. The procedure:
Invasion is an important step towards breast cancer cell metastasis. Therefore, the effects of several cannabinoids were tested on their ability to modulate the migratory and invasiveness activity of the most aggressive human breast cancer cell line, MDA-MB231, in a reconstituted basement membrane in a Boyden chamber.

Test [3] concerns MDA-MB231 cells. Description: MTT cell proliferation assay, MDA-MB231. The note with it: read-out: IC50 antiproliferative, MDA-MB231.
A further test deals with SF126 cells. The test is described as follows: MTT cell proliferation assay, SF126 GBM cells. The class given is cell-based, human. How it is done:
as §1, §2

The test system of another test is MDA-MB436 cells. Description: MTT cell proliferation assay, MDA-MB436. As to conditions: read-out: IC50 antiproliferative, MDA-MB436.
A further test relates to U87 cells. The test is described as follows: MTT cell proliferation assay, U87 GBM cells. The note with it: 95% confidence limits. The class given is cell-based, human. How it is done:
as §1, §2

Test [4] concerns Id-1. Description: Id-1 protein expression by quantitative Western analysis, MDA-MB231. As to conditions: MDA-MB231 cells, 1.5 μM, two days, FIG. 1E. The class given is cell-based, human. From the text:
Proteins were separated by SDS/PAGE, blotted on Immobilon membrane, and probed with anti-Id-1 and the appropriate secondary antibody. Band intensity values were obtained directly from the blot using AlphaeaseFC software (San Leandro, Calif.) or from film using Image-J (NIH, MD). As a normalization control for loading, blots were stripped and re-probed with mouse alpha-tubulin (Abeam, Cambridge, Mass.).
The ability of CBD to regulate the expression of key genes that control breast cancer cell aggressiveness and invasiveness was determined A potential candidate protein that could mediate the effects of CBD on both phenotypes was the helix-loop-helix protein Id-1. […] The inhibitory effect of CBD on Id-1 expression occurred at concentrations as low as 100 nM. […] The CBD concentrations effective at inhibiting Id-1 expression correlated with those used to inhibit the proliferative and invasive phenotype of MDA-MB231 cells. Furthermore, the time period needed to observe the down-regulation of Id-1 protein in the presence of CBD correlated with the inhibitory effects of CBD on the aggressiveness and invasiveness of MDA-MB231 cells (FIG. 1, panel D).
In order to determine the SAR between cannabinoids and the inhibition of Id-1, MDA-MB231 cells were treated for two days with multiple cannabinoid compounds and Id-1 protein levels were assessed.

The subject of the next test is Id-1 promoter. The test is described as follows: Id-1 promoter luciferase reporter assay, MDA-MB231. The class given is cell-based, human. The note with it: MDA-MB231 cells, 1.5 μM, 2 or 3 days; FIG. 2B, C. The procedure: A SacI-BspHI fragment of 2.2 kb corresponding to the 5′ upstream region of human Id-1 gene and driving a luciferase gene in a PGL-3 vector (Promega) has already been described (Id-1-sbsluc). Cells were plated in six well dishes in medium supplemented with 10% FBS and 5 μg/ml insulin. After 24 h, cells were cotransfected with […] of luciferase reporter plasmids and 2 μg of pCMVβ (Clontech) using superfect reagent (Qiagen). pCMVβ contained bacterial β-galactosidase and served to control for variation in transfection efficiency. 3 h after transfection, the cells were rinsed twice with PBS and were cultured in the absence or presence of CBD for 48-72 h. Cell pellets were lysed in 80 μl of reporter lysis buffer (Promega) for 10 min at room temperature. Lysed cells were centrifuged and supernatants harvested. […]
To determine if this effect was due to the inhibition of transcription, a construct was used that contained the Id-1 promoter fused to a luciferase reporter in a PGL-3 basic vector. […] Twenty-four hours after transfection, MDA-MB231-Id-1-luc cells were treated with CBD for 2 or 3 days and luciferase activity was measured (FIG. 2, panel B and panel C). […] These findings correlated to the data obtained when the expression of the Id-1 protein was assessed by Western analysis.
A general note: A reporter such as luciferase makes a cellular process visible.

The subject of a further test is ERK, JNK, and p38 MAPK. The test is described as follows: MAPK activity (pERK, ERK, JNK, p38) by Western analysis, U251. The class given is cell-based, human. The procedure:
Cells cultured and treated in 6-well dishes were washed twice with cold PBS. Lysis buffer was added and cells lysed by freezing for 10 min at −70° C. and then thawing. Cell lysate was collected and the concentration was determined using Bradford reagent. Equal amounts of protein were heated to 90° C. in Laemmli sample buffer with β-mercaptoethanol, and loaded onto a precast SDS-PAGE gel (Bio-Rad Laboratories, Hercules, Calif.). Protein was transferred to an Immobilon membrane (Millipore, Billerica, Mass.) overnight at 2-4° C. Blots were then blocked with 5% nonfat dry milk in TBS+Tween for 1 h. Primary antibody from Millipore (rabbit anti-phospho-JNK, rabbit anti-phospho-p38, rabbit anti-phospho-ERK1/2 and rabbit anti-ERK1/2, 1 mcg/mL) in blocking buffer was then added for 1 h. The blots were then rinsed three times 10 min with TBS+Tween. Secondary antibody (Donkey Anti-Rabbit IgG, Jackson Immunoresearch, West Grove, Pa.) was then added. Blots were incubated for 45 min and then washed 4 times for 15 min each. The blots were developed with SuperSignal Femto (Pierce, Rockford, Ill.), and imaged on either a Fluorchem 8900 (Alpha Innotech, San Leandro, Calif.) or ECL Hyperfilm (Amersham-Pharmacia, Piscataway, N.J.). Band intensity values were obtained (after background subtraction) directly from the […] using AlphaeaseFC software (San Leandro, Calif.) or from film using Image-J (NIH, MD). As a normalization control for loading, blots were stripped and re-probed with mouse alpha-tubulin (Abcam, Cambridge, Mass.) and goat anti-mouse IgG (Jackson Immunoresearch) for the primary and secondary antibodies, respectively.
The regulation of ERK, JNK, and p38 MAPK activity plays a role in controlling cell growth and apoptosis. U251 cells were used to determine whether modulation of ERK, JNK, and p38 MAPK activity occurred.

Test [5] relates to Id-1. Description: Id-1 protein expression by Western blot, U251. The class given is cell-based, human. The note with it: FIG. 11. (In general: In western blotting, separated proteins are transferred to a membrane and probed.)
In test [6] the test system is U251 cells. Description: Cell cycle analysis (PI staining, FACS), U251. The class given is cell-based, human. As to conditions: Δ9-THC 1.7 μM and/or CBD 0.4 μM, FIG. 8. How it is done:
U251 cells were grown in Petri dishes (100 mm×15 mm) and received drug treatments for 2 days. On the third day, the cells were harvested and centrifuged at 1200 rpm for 5 minutes. The pellet was washed 1× with PBS+1% BSA, and centrifuged again. The pellet was resuspended in 0.5 ml of 2% paraformaldehyde (diluted with PBS) and left to fix overnight at room temperature. The next day the cells were pelleted and resuspended in 0.5 ml 0.3% Triton in PBS and incubated for 5 minutes at room temperature. The cells were then washed 2 times with PBS+1% BSA. The cells were finally suspended in PBS (0.1% BSA) with 10 ug/ml Propidium Iodide and 100 μg/ml RNAse. The cells were incubated for 30 minutes at room temperature before being stored at 4 C. Cell cycle was measured using a FACS Calibur using Cell Quest Pro and Modfit software.

[7] abbreviates: treated for three days, value with confidence limits.
[8] abbreviates: three day treatment, 95% confidence limits (Table 4), read-out: IC50 antiproliferative, SF126.
The mark [9] stands for this setting: Homo sapiens, SF-126, 72 h, three day treatment, 95% confidence limits (Table 4), read-out: IC50 antiproliferative, SF126.

Consider `Cc1c(C(=O)c2cccc3ccccc23)c2cccc3c2n1[C@H](CN1CCOCC1)CO3` [WIN 55,212-2], for which the negative-log IC50 (pIC50) (in general, −log10 of the IC50, conventionally taken in molar units) was 5.96 in the test with U251 cells [1] (seven day treatment, read-out: IC50 antiproliferative, U251); 5.77 in the test on MDA-MB231 cells [3] (setting [7]); 6.08 in the test on SF126 cells (seven day treatment, 95% confidence limits, read-out: IC50 antiproliferative, SF126); 5.89 with SF126 cells (setting [8]); 5.62 with MDA-MB436 cells (setting [7]); 6.11 in the test with U87 cells (seven day treatment, read-out: IC50 antiproliferative, U87). For the same compound, the “invasion of MDA-MB231 cells” value with MDA-MB231 cells [2] is “significantly reduced”.

Take `C=C(C)[C@@H]1CCC(C)=C[C@H]1c1c(C)cc(O)cc1O` [0-1602]: in the test on Id-1 [4], the “inhibition of Id-1 protein (structure activity relationship)” value (shortened to “inhibition of Id-1 protein”) was “No inhibition”.

Regarding `CCCCCc1cc(O)c(C/C=C(\C)CCC=C(C)C)c(O)c1` [CBG, cannabigerol], the pIC50 is 5.64 in the test with MDA-MB231 cells [3] (Homo sapiens, MDA-MB-231, 72 h); 5.80 in the test on SF126 cells (setting [9]); 5.68 in the test with MDA-MB436 cells (Homo sapiens, MDA-MB-436, 72 h).

On to `CCCCCc1cc(O)c2c(c1)OC(C)(C)c1ccc(C)cc1-2` [CBN, cannabinol], for which, in the test with Id-1 [4], the “inhibition of Id-1 protein” value is on record as “partially inhibit”. The pIC50 in the test with MDA-MB231 cells [3] (Homo sapiens, MDA-MB-231, 72 h) was 5.92; in the test on SF126 cells (setting [9]), 5.92; in the test on MDA-MB436 cells (Homo sapiens, MDA-MB-436, 72 h), 5.59.

Turning to `CCCCCCC(C)(C)c1ccc([C@@H]2C[C@H](O)CC[C@H]2CCCO)c(O)c1` [CP 55,940], the “inhibition of Id-1 protein” value is “partially inhibit; also recorded: inhibited Id-1 expression” with Id-1 [4] and “small inhibition” in the test with Id-1 [4] (940). Moreover, the pIC50 in the test with MDA-MB231 cells [3] (setting [7]) was 5.60; in the test with SF126 cells (setting [8]) it was 5.48; with MDA-MB436 cells (setting [7]), 5.89.

For the compound `C=C(C)[C@@H]1CCC(C)=C[C@H]1c1c(O)cc(O)cc1CCCCC` [Abn-CBD], the “inhibition of Id-1 protein” value in the test on Id-1 [4] is listed as “No inhibition”.

In the case of `C=C(C)[C@@H]1CCC(C)=C[C@H]1c1c(O)cc(CCCCC)cc1O` [CBD, cannabidiol], the “Id-1 promoter luciferase activity” value in the test with Id-1 promoter is recorded as “significant inhibition”. The “p-ERK, higher concentrations alone compared with the combination” value in the test with ERK, JNK, and p38 MAPK (U251, three days, 2.5 μM Δ9-THC, 2.0 μM CBD, or 1.7 μM/0.4 μM combination, FIG. 6D) is “small inhibition”. Further, the p-ERK entry in the test on ERK, JNK, and p38 MAPK (U251, Δ9-THC 1.7 μM and/or CBD 0.4 μM, two days, FIG. 4) is recorded as “no changes”. The “Id-1 protein expression in U251 cells” value in the test with Id-1 [5] is on record as “concentration-dependent inhibition”. The pIC50 in the test with U251 cells [1] (Homo sapiens, U-251, 72 h, three day treatment, read-out: CBD IC50, U251) was 6.22; with SF126 cells (setting [9]), 5.92; in the test with SF126 cells (Homo sapiens, SF-126, 72 h, three day treatment, 95% confidence limits, read-out: CBD IC50, SF126), 5.92; in the test with SF126 cells (Homo sapiens, SF-126, limits 0.64-0.82, reported with the Table 3 experiments, read-out: IC50 antiproliferative, SF126), 6.14; in the test on MDA-MB436 cells (Homo sapiens, MDA-MB-436, 72 h), 5.82; with U87 cells (Homo sapiens, U-87 MG, 72 h, three day treatment, read-out: CBD IC50, U87) it was 6.15. Further, the cell cycle distribution result in the test with U251 cells [6] was “increases in the population of cells in G1 and G2/M phase and decreases in cells in S phase”. The “cell invasiveness, control MDA-MB231 (-Id1) cells” value in the test with MDA-MB231 cells [2] (1.5 μM, two day treatment, empty pLXSN vector, FIG. 7) is recorded as “significant reduction”. In the test on MDA-MB231 cells [2], the “invasion of MDA-MB231 cells” value is on record as “significantly reduced”.
